Test system: ICAM-1
Assay: Western blot of TNF-α-induced ICAM-1 expression in SV40-HCEC cells
Format: cell-based, human
Conditions: 1-μM secretin
Experimental: Experiments were conducted to set up an in vitro model for dry eye syndrome, using cell cultures of immortalized human cells from the cornea or conjunctiva using the SV40-HCEC corneal cell line of SV40 virus-immortalized corneal cells (12). SV40-HCEC cells were shown using immunofluorescence of anti-oxytocin receptor antibodies to contain oxytocin receptors in the plasma membrane (FIG. 4A, oxytocin receptor fluorescence is in red [top panel]; blue represents nuclear staining with DAPI stain [bottom panel]), consistent with the results showing its presence in rodent conjunctiva and cornea. Moreover, the presence of secretin receptors in SV40HCEC cells was shown using Western blot (FIG. 4B, the presence of secretin receptor migrating at the expected size [arrow]). M: Marker, S: Sample/secretin receptor. The lower band in the sample lane represents degradation product.
A Western blot-based assay was developed to assess for the role of oxytocin and secretin in dry eye syndrome in vitro. The expression of the […] ICAM-1 in SV40-HCEC cells was induced by adding the pro-inflammatory cytokine TNF-α [13]. In vivo, ICAM-1 acts to recruit neutrophils to sites of inflammation, and thus acts as a surrogate for inflammation in vitro.

Substance: secretin: neuropeptide; endocrine hormone of the glucagon family, commercially available as SecreFlo
- Reduction of rate of accumulation of ICAM-1: about two-fold

— patent publication US20170014487A1, “Method for treating ocular inflammation” (THE TRUSTEES OF COLUMBIA UNIVERSITY IN THE CITY OF NEW YORK, priority 2014, published 2017)
